The source of these data is patent US9000154B2, “Rho kinase inhibitors” (Boehringer Ingelheim International GmbH, priority 2010, dated 2015).

Molecules are shown by their SMILES.

Experiment [1] has as its target T1, ROCKII (1-543) (Homo sapiens, UniProt O75116). As to the kind of experiment: Luciferin-Luciferase Assay (PKLight ATP detection). The experiment is classed as biochemical. More on the design: ROCKII (1-543) (62,408 Da) was diluted in assay buffer. The note with it: 7.5 nM ROCKII (1-543), 750 nM ATP. How it is done: 1. Luciferin-Luciferase Assay
The activity of ROCKII (1-543) kinase was measured utilizing Cambrex PKLight ATP Detection Reagent, a homogeneous assay technology using luciferin-luciferase to quantify residual ATP. The assay was performed in 384-well low-volume, white, non-binding surface microtiter plates (Corning). The assay buffer was 25 mM HEPES, pH 7.5, 10 mM MgCl2, 50 mM KCl, 0.2% BSA, 0.01% CHAPS, 100 μM Na3VO4 and 0.5 mM DTT. Test compounds, dissolved in neat DMSO at 500 μg/mL, were serially diluted for dose response for a final starting concentration of 3 μg/mL in 1% DMSO of assay buffer. ROCKII (1-543) (62,408 Da) was diluted in assay buffer to a final concentration of 7.5 nM in a total volume of 15 μL. Positive controls were reaction mixtures containing no test compound; negative controls (blanks) were reaction mixtures containing no kinase. After 15 minutes of pre-incubation of the test compounds with the kinase, a mixture of ATP and peptide substrate (AKRRRLSSLRA) in assay buffer was added to each well for a final concentration of 750 nM ATP and 500 nM peptide, respectively. After 90 minutes of incubation of the kinase reaction at 28° C. temperature, 10 μL of PKLight ATP Detection Reagent (warmed to room temperature previously) was added to each well. The assay plate was incubated at room temperature for additional 15 minutes and then read on an Analyst in luminescence mode. Dose-response experiments for each of the test compounds were conducted in quadruplet. IC50 values of test compounds represent 50% response of the positive control from the dose-response curve.
Target sequence in this assay (O75116 1-543): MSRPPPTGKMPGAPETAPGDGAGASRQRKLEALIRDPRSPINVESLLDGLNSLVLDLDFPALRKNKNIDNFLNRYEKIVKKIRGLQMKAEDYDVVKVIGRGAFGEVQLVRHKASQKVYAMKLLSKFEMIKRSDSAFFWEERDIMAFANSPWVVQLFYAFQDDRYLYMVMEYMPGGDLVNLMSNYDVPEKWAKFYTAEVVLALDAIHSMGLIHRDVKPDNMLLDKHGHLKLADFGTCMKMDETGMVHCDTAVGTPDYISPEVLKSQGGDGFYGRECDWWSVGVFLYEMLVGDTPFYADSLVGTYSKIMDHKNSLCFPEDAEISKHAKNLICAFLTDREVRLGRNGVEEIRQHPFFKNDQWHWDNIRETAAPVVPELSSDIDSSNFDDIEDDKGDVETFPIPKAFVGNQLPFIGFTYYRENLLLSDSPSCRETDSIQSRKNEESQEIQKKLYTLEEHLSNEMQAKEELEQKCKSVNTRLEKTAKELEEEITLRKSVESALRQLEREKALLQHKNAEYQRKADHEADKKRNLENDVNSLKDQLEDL

The target of experiment [2] is T1, ROCKII (1-543). As to the kind of experiment: IMAP Assay (fluorescence polarization, FAM S6 peptide). More on the design: 3 nM ROCKII (1-543) diluted in kinase reaction buffer. The conditions noted are these: IMAP FP, 1 nM ROCKII (1-543), 100 μM ATP; read-out: Assay 2 IC50. The experiment is classed as biochemical. The procedure:
This assay is performed using FAM S6 substrate peptide (Catalogue #R7184) and IMAP FP Screening Express Kit detection reagents from Molecular Devices (Sunnyvale, Calif.) in IMAP kinase reaction buffer (Tris-HCl, pH 7.2, 10 mM MgCl2, 0.05% NaN3, 0.1% phosphate-free BSA) containing 1 mM DTT. Test compounds dissolved in neat DMSO at 0.3 mg/mL are serially diluted 1 to 3 for concentration response in 100% DMSO. The DMSO serial dilutions are further diluted 33.33-fold in kinase reaction buffer, and 10 μL of this buffer dilution is transferred to Corning black 96-well half area NBS plates for a final top concentration of 3 μg/mL in 1% DMSO. 10 μL aliquot of 3 nM ROCKII (1-543) diluted in kinase reaction buffer is added to each assay well for a final concentration of 1 nM kinase. 10 μL of a mixture of 600 nM FAM S6 peptide and 300 μM ATP diluted in kinase reaction buffer is added to each well for a final concentration of 200 nM peptide and 100 μM ATP. The kinase reaction mixture is incubated for 60 minutes at room temperature. Positive controls are reaction mixtures containing no test compound and negative controls (blanks) are reaction mixtures containing no kinase. The kinase reaction is stopped by addition of 60 μL IMAP progressive binding reagent (Catalog #R7284) diluted 400-fold in 1× Binding buffer A. After 30 min of incubation at room temperature, the plates are read for fluorescence polarization on Analyst Plate Reader using Ex 485 nm, Em 530 nm, and FL 505 dichroic mirror. The mP signals are converted to percent of control (POC) values using the formula: POC=100*(Signal−BCTRL)÷(PCTRL−BCTRL)
Where Signal is the test well signal, BCTRL is the average of background (negative control) well signals on the plate and PCTRL is the average of positive control well signals on the plate. For the concentration-responsive compounds, POC as a function of test compound concentration is fitted to a 4-parameter logistic equation of the form: Y=A+(B−A)/[1+(x/C)D]
Where A, B, C, and D are fitted parameters (parameter B is fixed at zero POC), and x and y are the independent and dependent variables, respectively. The IC50 is determined as the inflection point parameter, C.
Target sequence in this assay (O75116 1-543, species assumed): as the sequence (O75116 1-543) above
A general note: Polarisation of emitted light reports the rotation of a fluorescent probe.

Experiment [3] relates to neointimal formation in rats. The conditions noted are these: balloon injury model; cited from earlier work.
The test system of experiment [4] is spontaneously hypertensive rat, renal hypertensive rat and deoxycortisone acetate salt hypertensive rat models. The conditions noted are these: cited from earlier work.
Another experiment concerns Dahl salt-sensitive rats. The conditions noted are these: congestive heart failure; cited from earlier work.
Experiment [5] deals with IL-1 beta-induced coronary stenosis. The note with it: porcine, long term treatment; cited from earlier work.
The test system of the next experiment is rat stroke model. The note with it: cited from earlier work.

Consider `C[C@@H]1CN(C2CCc3nc(NC(=O)c4cccc(Cn5cc(-c6ccc(C#N)cc6)cn5)c4)sc3C2)C[C@H](C)O1` (stereo partly drawn) [Compound 26, 3-[4-(4-Cyano-phenyl)-pyrazol-1-ylmethyl]-N-[6-((2R,6S)-2,6-dimethyl-morpholin-4-yl)-4,5,6,7-tetrahydro-benzothiazol-2-yl]-benzamide], for which the IC50 (usually the midpoint of a concentration-inhibition curve) at ROCKII (1-543) [1] stood at 4.3 nM; at ROCKII (1-543) [2], 3.9 nM.

`C[C@@H]1CN(C2CCc3nc(NC(=O)c4cccc(Cn5cc(-c6ccc(C#N)cc6)nn5)c4)sc3C2)C[C@H](C)O1` (stereo partly drawn) [Compound 27, 3-[4-(4-Cyano-phenyl)-[1,2,3]triazol-1-ylmethyl]-N-[6-((2S,6R)-2,6-dimethyl-morpholin-4-yl)-4,5,6,7-tetrahydro-benzothiazol-2-yl]-benzamide]: the IC50 at ROCKII (1-543) [1] was 3.1 nM; at ROCKII (1-543) [2], 3.9 nM.

In the case of `CN(CCC(F)(F)F)[C@H]1CCc2nc(NC(=O)c3cccc(Cn4cc(-c5ccc(C#N)cc5)cn4)c3)sc2C1` [Compound 30, 3-[4-(4-Cyano-phenyl)-pyrazol-1-ylmethyl]-N-{(S)-6-[methyl-(3,3,3-trifluoro-propyl)-amino]-4,5,6,7-tetrahydro-benzothiazol-2-yl}-benzamide], the IC50 against ROCKII (1-543) [1] is 2.1 nM; at ROCKII (1-543) [2] it was 7.3 nM.

Consider `CN(CCC#N)[C@H]1CCc2nc(NC(=O)c3cccc(Cn4cc(-c5ccc(C#N)cc5)nn4)c3)sc2C1` [Compound 32, N-{(S)-6-[(2-Cyano-ethyl)-methyl-amino]-4,5,6,7-tetrahydro-benzothiazol-2-yl}-3-[4-(4-cyano-phenyl)-[1,2,3]triazol-1-ylmethyl]-benzamide], for which the concentration for half-maximal inhibition (IC50) at ROCKII (1-543) [1] came out at 2.9 nM; on ROCKII (1-543) [2] it was 2 nM.

Turning to `N#Cc1ccc(-c2nnc(Cc3cccc(C(=O)Nc4nc5c(s4)C[C@@H](N4CCOCC4)CC5)c3)o2)cc1` [Compound 40, 3-[5-(4-Cyano-phenyl)-1,3,4-oxadiazol-2-ylmethyl]-N—((S)-6-morpholin-4-yl-4,5,6,7-tetrahydro-benzothiazol-2-yl)-benzamide], the IC50 against ROCKII (1-543) [1] stood at 3.2 nM; on ROCKII (1-543) [2], 12 nM.

Turning to `N#Cc1ccc(-c2cn(Cc3cccc(C(=O)Nc4nc5c(s4)CC(N4CCC(F)(F)CC4)CC5)c3)nn2)cc1` (stereo not shown) [Compound 41, 3-[4-(4-Cyano-phenyl)-1,2,3-triazol-1-ylmethyl]-N-[6-(4,4-difluoro-piperidin-1-yl)-4,5,6,7-tetrahydro-benzothiazol-2-yl]-benzamide], the half-inhibitory concentration (IC50) against ROCKII (1-543) [1] stood at 7.1 nM; at ROCKII (1-543) [2], 5.8 nM.

Turning to `N#Cc1ccc(-c2cn(Cc3cccc(C(=O)Nc4nc5c(s4)CC(N4CCC(F)CC4)CC5)c3)nn2)cc1` (stereo not shown) [Compound 42, 3-[4-(4-Cyano-phenyl)-1,2,3-triazol-1-ylmethyl]-N-[6-(4-fluoro-piperidin-1-yl)-4,5,6,7-tetrahydro-benzothiazol-2-yl]-benzamide], the half-maximal inhibitory concentration (IC50) was found to be 3.4 nM on ROCKII (1-543) [1] and 1.1 nM on ROCKII (1-543) [2].

As to `N#Cc1ccc(-c2cn(Cc3cccc(C(=O)Nc4nc5c(s4)C[C@@H](N4CCCCC4)CC5)c3)nn2)cc1` [Compound 44, 3-[4-(4-Cyano-phenyl)-1,2,3-triazol-1-ylmethyl]-N—((S)-6-piperidin-1-yl-4,5,6,7-tetrahydro-benzothiazol-2-yl)-benzamide], the half-maximal inhibitory concentration (IC50) against ROCKII (1-543) [1] came to 2.4 nM; on ROCKII (1-543) [2], 0.53 nM.

On to `COCCN[C@H]1CCc2nc(NC(=O)c3cccc(Cn4cc(-c5ccc(C#N)cc5)cn4)c3)sc2C1` [Compound 45, 3-[4-(4-Cyano-phenyl)-pyrazol-1-ylmethyl]-N—[(S)-6-(2-methoxy-ethylamino)-4,5,6,7-tetrahydro-benzothiazol-2-yl]-benzamide], for which the results for the 50% inhibitory concentration (IC50) against ROCKII (1-543) [1] and on ROCKII (1-543) [2] were 2.1 nM and 0.35 nM, respectively.

Regarding `COCCN(C)[C@H]1CCc2nc(NC(=O)c3cccc(Cn4cc(-c5ccc(C#N)cc5)nn4)c3)sc2C1` [Compound 49, 3-[4-(4-Cyano-phenyl)-[1,2,3]triazol-1-ylmethyl]-N-{(S)-6-[(2-methoxy-ethyl)-methyl-amino]-4,5,6,7-tetrahydro-benzothiazol-2-yl}-benzamide], the IC50 on ROCKII (1-543) [1] was 1.7 nM; at ROCKII (1-543) [2] it was 0.73 nM.

In the case of `COCCN(CCOC)[C@H]1CCc2nc(NC(=O)c3cccc(Cn4cc(-c5ccc(C#N)cc5)nn4)c3)sc2C1` [Compound 55, N-{(S)-6-[Bis-(2-methoxy-ethyl)-amino]-4,5,6,7-tetrahydro-benzothiazol-2-yl}-3-[4-(4-cyano-phenyl)-[1,2,3]triazol-1-ylmethyl]-benzamide], the IC50 was 2.3 nM against ROCKII (1-543) [1] and 6.5 nM at ROCKII (1-543) [2].

On to `N#Cc1ccc(-c2nnc(Cc3cccc(C(=O)Nc4nc5c(s4)C[C@@H](N4CCOCC4)CC5)c3)s2)cc1` [Compound 56, 3-[5-(4-Cyano-phenyl)-1,3,4-thiadiazol-2-ylmethyl]-N—((S)-6-morpholin-4-yl-4,5,6,7-tetrahydro-benzothiazol-2-yl)-benzamide], for which the IC50 worked out at 2.5 nM on ROCKII (1-543) [1] and 4 nM at ROCKII (1-543) [2].

Consider `C[C@@H](N)[C@H]1CC[C@H](C(=O)Nc2ccncc2)CC1` [Compound Y-27632, Y-27632], for which the neointimal formation entry in experiment [3] is given as “inhibited neointimal formation”. Moreover, in experiment [4] (control rats), the “effect on blood pressure in control rats” value is listed as “only a minor effect”. The “blood pressure in three rat models of hypertension” value in experiment [4] (spontaneously hypertensive, renal hypertensive, deoxycortisone acetate salt hypertensive rats) is “significantly decrease blood pressure”. For the same compound, in the experiment with Dahl salt-sensitive rats, the “ventricular hypertrophy and function” value was “improve ventricular hypertrophy and function”.

With `O=S(=O)(c1cccc2cnccc12)N1CCCNCC1` [fasudil], in experiment [5], the coronary constrictive remodeling entry is “promote a regression of coronary constrictive remodeling” and the coronary stenosis entry was “progressively reduce coronary stenosis”. Moreover, the “infarct size and neurologic deficit” value with rat stroke model was “reduce both the infarct size and neurologic deficit”.
